Experimental data published in patent US10920265B2, “Compounds and methods for detection of enzymes that remove methyl succinyl groups from epsilon-amino lysine moieties” (Enzo Life Sciences, Inc., priority 2011, dated 2021).

How the values were obtained:
Type in all cases: biochemical
SIRT5 [1] = molecular target: T1, SIRT5 (Homo sapiens, UniProt Q9NXA8); assay: SIRT5 desuccinylation/deacetylation of fluorogenic lysyl substrates, trypsin developer; parameters: purchased Enzo Life Sciences BML-SE555
T1 sequence (Q9NXA8 37-310): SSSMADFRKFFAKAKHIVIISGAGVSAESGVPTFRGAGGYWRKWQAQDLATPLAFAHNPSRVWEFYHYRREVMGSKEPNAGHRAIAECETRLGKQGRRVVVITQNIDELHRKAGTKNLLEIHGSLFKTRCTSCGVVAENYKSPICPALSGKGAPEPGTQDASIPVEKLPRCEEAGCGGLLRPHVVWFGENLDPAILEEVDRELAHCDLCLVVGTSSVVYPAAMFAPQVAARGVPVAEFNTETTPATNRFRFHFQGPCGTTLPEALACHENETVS
Description: FIG. 3 is graphs showing that SIRT5 catalyzes NAD^+-dependent desuccinylation of Ac-Lys(ε-succinyl)-AMC far more efficiently than NAD^+-dependent deacetylation of Ac-Arg-His-Lys-Lys(ε-acetyl)-AMC. Fifty μl reactions in Assay Buffer (50 mM Tris/HCl, pH 8.0, 137 mM NaCl, 2.7 mM KCl, 1 mM MgCl2, 1 mg/ml BSA) included 50 μM of either Ac-Lys(ε-succinyl)-AMC or Ac-Arg-His-Lys-Lys(ε-acetyl)-AMC, and, where indicated, 500 μM NAD^+ and 5 μg recombinant human SIRT5 (Enzo Life Sciences Cat. # BML-SE555). […] AMC fluorescence was read in a Cytofluor II plate-reading fluorimeter (Perseptive Biosystems) at wavelengths 360 nm (excitation)/460 nm (emission), Gain 54. Data represent the mean of two (No Enzyme) or three (+SIRT5) determinations and error bars the standard deviations. Panels A and B present the same data, but with the +SIRT5/+NAD^+/Ac-Lys(ε-succinyl)-AMC bar omitted from B to show the detail on the remaining bars. Statistically significant differences (Student's t-test) are indicated by asterisks as follows: *: p<0.02 vs. corresponding No Enzyme control; **: p<0.001 vs. corresponding −NAD^+ control; ***: p<3×10^−6 vs. both No Enzyme and −NAD^+ controls.
FIG. 4 is a graph showing that Ac-Lys(Succ.)-AMC enables SIRT5 assay at low enzyme concentrations. Fifty μl reactions in Assay Buffer (50 mM Tris/HCl, pH 8.0, 137 mM NaCl, 2.7 mM KCl, 1 mM MgCl2, 1 mg/ml BSA) included 2 or 10 μM Ac-Lys(ε-succinyl)-AMC, 500 μM NAD^+ and, where indicated, 5 ng recombinant human SIRT5 (Enzo Life Sciences Cat. # BML-SE555). […] AMC fluorescence was read in a Synergy 2 plate-reading fluorimeter (BioTek) at wavelengths 360 nm (excitation)/460 nm (emission), Gain 40. Data represent the mean of two (No Enzyme) or three (5 ng SIRT5) determinations and error bars the standard deviations. Statistically significant differences (Student's t-test) are indicated by asterisks as follows: *: p=0.002; **: p=0.009, each with respect to the corresponding “No SIRT5” samples.
FIG. 5 is graphs showing dependence of SIRT5 initial rate kinetics on the concentrations of Ac-Lys(Succ.)-AMC and Ac-Lys(Ac.)-AMC. Fifty μl desuccinylation or deacetylation reactions were performed as described earlier (FIG. 4), with the indicated concentrations of Ac-Lys(Succ.)-AMC or Ac-Lys(Ac.)-AMC and 1 mM NAD^+, for 20 min. at 37° C. Reactions with Ac-Lys(Succ.)-AMC contained 10 ng SIRT5 and those with Ac-Lys(Ac.)-AMC contained 5 SIRT5. Reactions were stopped and AMC cleaved from deacetylated or desuccinylated substrate by trypsin treatment as described earlier (FIG. 4). AMC fluorescence was read in a Synergy 2 plate-reading fluorimeter (BioTek) at wavelengths 360 nm (excitation)/460 nm (emission), Gain 40. Data represent the mean of the differences of three determinations with enzyme (10 ng or 5 SIRT5) from the mean of two no enzyme samples for each substrate concentration. Error bars are the standard deviations from those means. Fluorescence differences were converted to specific activities (pmol/min/μg) by measuring the fluorescence increase due to the addition a standard solution of AMC (5 μl of a […]).
FIG. 6 is a graph showing the dependence of SIRT5 initial rate kinetics of Ac-Lys(Succ.)-AMC desuccinylation on the concentration of NAD^+. Reaction conditions were as described for FIG. 5 but with a constant Ac-Lys(Succ.)-AMC concentration of 0.5 mM and the indicated concentrations of NAD^+. Data analysis and determination of kinetic parameters were as described (FIG. 5).
FIG. 12 is graphs showing that SIRT5 catalyzes NAD^+-dependent desuccinylation of (Ac-Lys(Succ.))2-R110 far more efficiently than NAD^+-dependent deacetylation of (Ac-Lys(Ac.))2-R110. Fifty μl reactions in Assay Buffer (50 mM Tris/HCl, pH 8.0, 137 mM NaCl, 2.7 mM KCl, 1 mM MgCl2, 1 mg/ml BSA) included 50 μM of either (Ac-Lys(Succ.))2-R110 or (Ac-Lys(Ac.))2-R110, and, where indicated, 500 μM NAD^+ and 5 μg recombinant human SIRT5 (Enzo Life Sciences Cat. # BML-SE555). […]

SIRT5 [2] = molecular target: T1, SIRT5; assay: Inhibition of SIRT5 desuccinylation of Ac-Lys(Succ.)-AMC; parameters: purchased Enzo Life Sciences BML-SE555; conditions: three parameter Hill-Slope model, bottom fixed at 0
Excerpt: Signal development (trypsin treatment) and fluorescence readings were done as described, as were the conversion of fluorescence increases to rates in units of pmol/min/μg (FIG. 5). Data points represent the mean of three determinations and the error bars are the standard deviations from those means. The dose-response curve was derived from a least-squares fit to a three parameter Hill-Slope model (bottom fixed at 0 pmol/min/μg), y=top/(1+(x/IC50)^slope).
Data points represent the mean of three determinations and the error bars are the standard deviations from those means. The dose-response curve was derived from a least-squares fit to a three parameter Hill-Slope model (bottom fixed at 0 pmol/min/μg), y=top/(1+(x/IC50)^slope).
(§1) Assays were performed at 37° C., according to the manufacturer's instructions for the “SIRT1 Fluorometric Drug Discovery Kit” from Enzo Life Sciences (ELS) (Cat. # BML-AK555), with exceptions described as follows. Where indicated in figures and text, SIRT1 enzyme was replaced with another enzyme or extract and the “Fluor de Lys-SIRT1 Substrate” (Ac-Arg-His-Lys-Lys(Ac)-AMC; ELS Cat. # BML-KI-177) was replaced with another acetylated, succinylated or trifluoroacetylated substrate.

[3] = molecular target: T2, bovine pancreatic trypsin (Bos taurus, UniProt P00760); assay: Trypsin release of AMC from lysyl-AMC compounds; conditions: 1 μM compound, trypsin 2 mg/ml, room temperature
T2 construct: purchased ENZO Life Sciences BML-KI105 or BML-KI176; host or cells: bovine pancreas
T2 sequence (P00760 24-246): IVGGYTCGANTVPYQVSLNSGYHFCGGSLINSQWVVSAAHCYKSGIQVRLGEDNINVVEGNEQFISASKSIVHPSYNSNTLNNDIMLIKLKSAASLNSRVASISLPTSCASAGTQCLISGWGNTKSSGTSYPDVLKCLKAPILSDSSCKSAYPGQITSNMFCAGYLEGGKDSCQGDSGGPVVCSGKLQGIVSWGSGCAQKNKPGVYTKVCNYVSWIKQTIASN
Description: FIG. 2 is a graph showing that trypsin treatment releases fluorescent AMC from Ac-Lys-AMC but not Ac-Lys(Succinyl)-AMC. Samples (100 μl) of 1 μM Ac-Lys-AMC and 1 μM Ac-Lys(Succinyl)-AMC in a buffered solution (50 mM Tris/HCl, pH 8.0, 137 mM NaCl, 2.7 mM KCl, 1 mM MgCl2) were treated with bovine pancreatic trypsin (2 mg/ml) for the indicated times at room temperature. Samples were in the wells of a 96-well, ½-area white microplate and fluorescence was measured at 1 min. intervals at the excitation and emission wavelengths for free AMC (Excitation: 360 nm; Emission: 460 nm) in a Synergy 2 microplate reading fluorimeter (BioTek), Gain 40. The data points at 0 min. represent the fluorescence of equivalent 1 μM Ac-Lys(Succ.)-AMC and 1 μM Ac-Lys-AMC samples in the absence of trypsin.
As noted in the Background of the Invention section above, the protease trypsin catalyzes the hydrolytic cleavage of amide bonds on the carboxyl side of unmodified lysine residues. Hydrolytic cleavage of lysyl amide bonds with AMC or rhodamine 110 (dye components of Compounds 1 and 2, respectively) releases the free amino forms of the dyes. This elicits an upward shift of the dye's fluorescence emission peak wavelength (bathochromic shift), for example to 460 nm for AMC or 530 nm for rhodamine 110. If succinylation of the ε-amino function of the lysine moieties in compounds such as 1 and 2 renders the amide bond between the carbonyl of lysine and the amino of dye groups such as AMC or rhodamine resistant to trypsin cleavage then, upon desuccinylation, the lysine/dye amide bond would become cleavable by trypsin. Note that removal of a single succinyl group from 2, followed by cleavage of the desuccinylated lysine would yield a compound with a single free amino function, Ac-K(Succ.)-R110. Monoamides of rhodamine 110 also have increased fluorescence emission at 530 nm relative to 2, although they are less fluorescent than rhodamine 110 itself (Liu et al., 1999). Thus, monitoring the fluorescence at the peak wavelength of the amino form of the dye would allow the desuccinylation reaction to be quantified. A schematic for such an assay is depicted for Compound 1 and SIRT5 in FIG. 1. Trypsin treatment (2 mg/ml) elicits an immediate increase in the fluorescence of a solution of Ac-Lys-AMC (Compound 6—FIG. 1) at the excitation and emission wavelengths of free AMC (Ex. 360 nm; Em. 460 nm), with maximum fluorescence achieved in 2 min. or less and ˜⅔ of that maximum occurring in 1 min. (FIG. 2).

HDAC2 = molecular target: T3, HDAC2 (Homo sapiens, UniProt Q92769); assay: HDAC activity with fluorogenic lysyl substrates; conditions: 50 μM substrate
T3 construct: purchased ENZO Life Sciences BML-SE500
T3 sequence (Q92769 whole entry): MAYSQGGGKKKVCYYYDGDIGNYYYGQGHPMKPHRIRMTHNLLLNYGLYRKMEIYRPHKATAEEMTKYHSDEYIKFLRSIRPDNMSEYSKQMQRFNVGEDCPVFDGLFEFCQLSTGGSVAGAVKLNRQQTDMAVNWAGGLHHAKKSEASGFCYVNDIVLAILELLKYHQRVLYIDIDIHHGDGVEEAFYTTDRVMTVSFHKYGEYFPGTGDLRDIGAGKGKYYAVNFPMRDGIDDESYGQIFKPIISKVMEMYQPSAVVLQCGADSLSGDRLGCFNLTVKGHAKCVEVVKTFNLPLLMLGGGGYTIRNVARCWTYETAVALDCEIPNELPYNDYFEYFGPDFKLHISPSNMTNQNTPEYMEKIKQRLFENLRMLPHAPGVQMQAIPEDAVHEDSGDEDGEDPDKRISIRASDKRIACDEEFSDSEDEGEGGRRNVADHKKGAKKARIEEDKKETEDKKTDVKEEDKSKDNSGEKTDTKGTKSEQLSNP
Description: The Ac-Lys(Succ.)-AMC substrate was tested for activity with recombinant preparations of human HDACs 1-11, SIRTs 1-4, 6 and 7, a complex of HDAC3 with a fragment of the activating protein NCOR1 and with HeLa nuclear extract, a rich source of active HDACs in their native multiprotein complexes.
Enzyme and extract catalog products obtained from ENZO Life Sciences included: HDAC1 (Cat. # BML-SE456), HDAC2 (Cat. # BML-SE500), HDAC3 (Cat. # BML-SE507), HDAC3/NCOR1 Complex (Cat. # BML-SE515), HDAC6 (Cat. # BML-SE508), HDAC8 (Cat. # BML-SE145), HDAC10 (Cat. # BML-SE559), HDAC11 (Cat. # BML-SE560), SIRT1 (Cat. # BML-SE239), SIRT2 (Cat. # BML-SE251), SIRT3 (Cat. # BML-SE270), SIRT5 (Cat. # BML-SE555), HeLa Nuclear Extract (Cat. # BML-KI140), Trypsin (“Fluor de Lys Developer”, 80 mg/ml bovine trypsin in 1 mM HCl, Cat. # BML-KI105 or “Fluor de Lys Developer II”, 80 mg/ml bovine trypsin in 1 mM HCl, Cat. # BML-KI176). […] Enzymes obtained from BPS Bioscience, San Diego, Calif. included: human recombinants SIRT4 (Cat. #50015), SIRT6 (Cat. #50017), SIRT7 (Cat. #50018). HeLa whole cell extract was obtained from HeLa S3 cells (American Type Culture Collection) grown in a medium of MEM/10% fetal bovine serum (FBS) as follows: 1) 9×10^6 cells were suspended by trypsinization, followed by a phosphate buffered saline (PBS) rinse and addition of MEM/10% FBS (1.5 mL) to eliminate trypsin before transfer to a 15 mL conical tube; 2) cells were sedimented by a low speed centrifugation, gently resuspended in PBS and sedimented again and supernatant removed; 3) lysis was induced by resuspension in 0.8 mL 50 mM Tris/HCl, pH 8.0 with the non-denaturing detergent NP-40 (0.5%), placement on ice and brief vortexing every 5 min. for 30 min.; 4) 100 μl of a concentrated salt solution in the same buffer was added in order to bring the final buffer composition to 50 mM Tris/C1, pH 8.0, 137 mM NaCl, 2.7 mM KCl, 1 mM MgCl2, 0.5% NP-40; 5) particulate matter was cleared by centrifugation and the cleared lysate supernatant transferred to a 1.5 mL Eppendorf tube and stored on ice until use in activity assays.
as §1

NC(=O)c1ccc[n+]([C@@H]2O[C@H](COP(=O)([O-])OP(=O)(O)OC[C@H]3O[C@@H](n4cnc5c(N)ncnc54)[C@H](O)[C@@H]3O)[C@@H](O)[C@H]2O)c1 [NAD^+]
Km (SIRT5 [1]; varied substrate: NAD^+, constant 0.5 mM Ac-Lys(Succ.)-AMC): 360 µM

NC(=O)c1cccnc1 [nicotinamide]
slope (fitted parameter of dose-response curve) (SIRT5 [2]): 0.98 | top (fitted parameter of dose-response curve) (SIRT5 [2]): 90.2 pmol/min/µg

CC(=O)N[C@@H](CCCCN)C(=O)Nc1ccc2c(C)cc(=O)oc2c1 [Compound 6, N-(α-acetyl-Lysine)-AMC, reference compound]
Fraction of maximum fluorescence at 1 min. [3]: ⅔ | Time to maximum fluorescence on trypsin treatment [3]: ≤ 2 min

CC(=O)NC(CCCCNC(=O)CCC(=O)O)C(=O)Nc1ccc2c(c1)Oc1cc(NC(=O)C(CCCCNC(=O)CCC(=O)O)NC(C)=O)ccc1C21OC(=O)c2ccccc21 (stereo not drawn) [Compound 2, N,N′-Bis(α-acetyl-Lysine(ε-succinyl))-rhodamine 110]
SIRT5/NAD^+ dependence of desuccinylation (SIRT5 [1]; 5 μg SIRT5, 50 μM substrate, 500 μM NAD^+, 60 min.): desuccinylated by SIRT5 in a time and NAD^+-dependent manner

CC(=O)NCCCCC(NC(C)=O)C(=O)Nc1ccc2c(c1)Oc1cc(NC(=O)C(CCCCNC(C)=O)NC(C)=O)ccc1C21OC(=O)c2ccccc21 (stereo not shown) [(Ac-Lys(Ac))2-R110, reference compound]
Activity (pmol/min/μg) (HDAC2): (Ac-Lys(Ac))2-R110/502 pmol/min/μg
